The structures appear in SMILES notation. Where two headings read alike, the source gives them in different places.

This is an account of results in patent publication US20070281040A1, “COMBINATION THERAPY OF HEDGEHOG INHIBITORS, RADIATION AND CHEMOTHERAPEUTIC AGENTS” (THE UNIVERSITY OF CHICAGO, priority 2004, published 2007).

The subject of data set [1] is murine tumor allografts of medulloblastoma. The conditions noted are these: mouse, in vivo; cited from earlier work.
In data set [2] the test system is hedgehog expressing tumor cells. In kind it is cell-based. As for the experimental part:
(§1) Cyclopamine 4 μmol was added to culture media of exponentially growing cells with or without chemotherapeutic agents and irradiated at 12 hours. Cells were trypsinized after 24, 48 or 72 hours. Annexin levels were measured (Annexin V: PE Apoptosis Detection Kit, BD Biosciences Pharningen™, San Jose, Calif.) for 0.5×10^6 freshly detached cells. The presence of membrane permeabilization was monitored by 7-AAD (7-Amino-actinomycinD) staining per manufacturer's protocol. Cells were subsequently analyzed by FACScan (BD FACSCanto™, BD Biosciences Immunocytometry Systems™, San Jose, Calif. with the use of CellQuest software (BD CellQuest™ Pro, BD Biosciences Immunocytometry Systems™, San Jose, Calif. The percentage of apoptotic cells was calculated by scoring for cells positive for either annexin alone (early apoptotic) or both annexin and 7-AAD (late apoptotic). All experiments were done in triplicate.

Data set [3] deals with Mia PaCa-2 cells. Nature of the data set: Colony formation assay. The procedure: Mia PaCa-2 cells were grown in DMEM high glucose, and supplemented with L-glutamine, 10% fetal bovine serum (FBS), and penicillin/streptomycin 1%.
250 to 1000 cells were plated in 60 mm dishes. Cells were incubated overnight. At twenty four hours cells were irradiated (3.5 Gy). Cyclopamine 2-10 μMol (Toronto Research Chemicals, TRC, supplier, Canada) was added to culture media, or combination of both. For chemotherapeutic agents, the drug was added to culture media at appropriate concentrations 24 hours after plating. Cultures were incubated for 10-14 days. […] Plating efficiency was normalized compared to control.

For data set [4], the system named is HCT 116 cells. Put plainly: Colony formation assay. In kind it is cell-based, human. As for the experimental part: (§2) Cells were incubated overnight. […] Cultures were incubated for 10-14 days. […] Plating efficiency was normalized compared to control.
Data set [5] relates to BxPC-3 cells. Nature of the data set: Colony formation assay. The data set is classed as cell-based, human. As for the experimental part: as §2
Data set [6] concerns pancreatic cancer cell lines with over-activation of Hh pathway signaling. The note with it: cited from earlier work.
Data set [7] concerns prostate cancer xenografts. The conditions noted are these: high dose treatment; cited from earlier work.
Data set [8] concerns Mia PcCa-2 cells. Nature of the data set: Annexin V-PE apoptosis assay. The data set is classed as cell-based, human. The note with it: 24 hours. As for the experimental part: as §1
Data set [9] relates to hedgehog expressing tumor cells. The data set is classed as cell-based. The source holds these as a separate data set.
[10] abbreviates: cyclopamine 4 μM and irradiation 3.5 Gy.

For `CC1=C2C[C@H]3[C@@H](CC=C4C[C@@H](O)CC[C@@]43C)[C@@H]2CC[C@]12O[C@@H]1C[C@H](C)CN[C@H]1[C@H]2C` [cyclopamine], the entries for the “tumor response (in words)” value in [1] and in data set [7] were “anti-tumor effects” and “complete regression”, respectively. Besides, the “apoptosis of combination with radiation vs radiation alone (in words)” value in data set [2] (cyclopamine 4 μMol and radiation 3.5 Gy) is listed as “not significantly different from radiation alone”. In addition, the “apoptotic cells (Annexin assay)” value in [2] (cyclopamine 4 μMol and radiation 3.5 Gy, 24 hours) came to 32.11%; in [2] (cyclopamine 4 μMol and radiation 3.5 Gy, 48 hours), 28.5%; in [2] (cyclopamine 4 μMol and radiation 3.5 Gy, 72 hours), 32.3%; in data set [2] (cyclopamine 4 μMol, 24 hours) it was 18.15%; in [2] (cyclopamine 4 μMol, 48 hours), 29.8%; in data set [2] (cyclopamine 4 μMol, 72 hours), 32.9%. Also, the “survival (colony formation)” value in data set [3] (cyclopamine 4 μM alone) stood at 29%; in data set [3] (setting [10]), 4%; in data set [3] (cyclopamine 10 μM), 7%; in [4] (setting [10]) it was 35%; in [4] (cyclopamine 10 μM), 74%; in [4] (cyclopamine 4 μMol alone) it was 92%. The “survival (colony formation)” value amounted to 7% in data set [5] (setting [10]), 11% in [5] (cyclopamine 10 μM) and 33% in [5] (cyclopamine 4 μMol alone). Moreover, the “cytotoxic effect when combined with irradiation (in words)” value in data set [3] (hedgehog expressing tumor cells) was “additive cytotoxic effect”. Moreover, the “effect on survival following irradiation (in words)” value in data set [4] (cells that do not express the hedgehog pathway) is “did not have a significant effect on survival”. Moreover, the “apoptosis (in words)” value in data set [6] is recorded as “induced apoptosis”. Besides, in [8] (cyclopamine 4 μMol), the “apoptosis (AnnexinV staining)” value is listed as 18.2%.
For the compound `CC(=O)O[C@H]1C(=O)[C@@]2(C)[C@H]([C@H](OC(=O)c3ccccc3)[C@]3(O)C[C@H](OC(=O)[C@H](O)[C@@H](NC(=O)c4ccccc4)c4ccccc4)C(C)=C1C3(C)C)[C@]1(OC(C)=O)CO[C@@H]1C[C@@H]2O` [taxol, Paclitaxel], in data set [3] (taxol 3.5 nM alone), the “survival (colony formation)” value was found to be 91%. In [8] (taxol 1.7 nM), the “apoptosis (AnnexinV staining)” value was found to be 64.9%.
In the case of `CC1=C2C(=O)C3C(CC=C4CC(O)CCC43C)C2CCC12OC1CC(C)CNC1C2C` (centres unmarked) [jervine], the “apoptosis of combination with radiation vs radiation alone (in words)” value in [9] (jervine 4 μMol and radiation 3.5 Gy) is on record as “differ little from radiation alone”. In data set [9] (jervine 4 μMol, 24, 48 or 72 hours), the “apoptosis (Annexin V assay, in words)” value is given as “induces apoptosis in an increasing percentage of cells in a time-dependent manner”. In addition, the “cytotoxic effect when combined with irradiation (in words)” value in data set [9] (jervine, hedgehog expressing tumor cells) is “additive cytotoxic effect”.
On to `N.N.[Cl][Pt][Cl]` [Cisplatin], for which the “survival (colony formation)” value in [3] (cisplatin 0.8 μM alone) is 35%.
For the compound `Nc1ccn([C@@H]2O[C@H](CO)[C@@H](O)C2(F)F)c(=O)n1` [Gemcitabine], the “survival (colony formation)” value in data set [3] (gemcitabine 7.3 nM alone) is reported as 35%.
